Measured values published in publication PMC9774600, “Oligopeptide Sortase Inhibitor Modulates Staphylococcus aureus Cell Adhesion and Biofilm Formation” (Antibiotics, 2022).
Entries after “also recorded” stand apart in the source; their conditions may differ.

How the values were obtained:
[1] = tested on: S. aureus ATCC 29213 (MSSA) biofilm; assay: Inhibition of biofilm formation assay; assay type: cell-based, Staphylococcus aureus; settings: 100 µmol/L LPRDA
Experimental: (§1) The assay was performed according to the protocol described by O’Toole, with minor modifications. To evaluate the effect of LPRDA on biofilm formation by the S. aureus ATCC 29213 and S. aureus ATCC 43300 strains, 150 µL of sterile LB broth with 4% glucose containing 12.5–100 µmol/L concentrations of LPRDA was added to four wells of 96-well plates. Then, 50 µL of staphylococcal culture (1 × 10^7 CFU/mL) was added and incubated at 37 °C for 24 h. LB culture broth that was not treated with LPRDA was used as the positive control. After 24 h, the plates were washed with PBS to remove planktonic and dead cells, stained with a 0.1% solution of gentian violet for 20 min, followed by extraction of the bound dye with 96% ethanol. The optical density (OD) of the obtained extracts was measured at 570 nm using a SPECTROstar Nano spectrophotometer.
(§2) The bacterial strains were classified into categories according to the Stepanović criteria. Quantitative calculation of S. aureus CFU in the biofilm formed in the presence of LPRDA and in the control experiments was assessed by inoculation on Columbia agar according to the Koch procedure. Inhibition of biofilm formation was determined according to the Kumari method.

[2] = tested on: S. aureus ATCC 43300 (MRSA) biofilm; assay: Inhibition of biofilm formation assay; assay type: cell-based, Staphylococcus aureus; settings: 24 h
Experimental: as §1, §2

S. aureus = settings: cited from earlier work
Source text: This concentration is at least eight times higher than those used for inducing antiadhesive effects, which is consistent with the LPRDA MIC > 200 µmol/L reported in [18]. A lack of bactericidal activity is an essential property for antivirulence therapeutics. The following experiments have found differ ...

[3] = assay type: physicochemical
Source text: The pentapeptide LPRDA was synthesized using the solid-phase peptide 9-fluorenylmethoxycarbonyl chemistry method. […] HRMS (ESI, m/z): [M + H]^+ calculated for C24H42N8O8, 571.3204; found, 571.3188.

S. aureus SrtA = settings: read-out: IC50 inhibition of the recombinant enzyme; cited from earlier work
[4] = tested on: S. aureus-induced mastitis; settings: mouse model; cited from earlier work
Source text: Only a few SrtA inhibitors have been evaluated in vivo, and so far, none have advanced to clinical trials, which would necessitate an actual efficacy evaluation and follow-up of the in-depth studies of these compounds [17]. […] Due to our interest in the development of novel antibacterials with antiadhesive mechanisms of action, we selected a reference compound with ...

[5] = tested on: community-associated MRSA strain USA300; settings: 25 µmol/L LPRDA, compared with srtA mutants; cited from earlier work
Experimental: Wang et al. studied the community-associated MRSA strain USA300 and its srtA mutants in a biofilm formation assay. […] We studied the influence of LPRDA at concentrations of 12.5 to 100 µmol/L on biofilm production by the MSSA and MRSA strains used in this adhesion experiment. We observed a concentration-dependent decrease in the amount of biofilm formed by the S. aureus ATCC 29213 (MSSA) strain when it was incubated with increasing concentrations of LPRDA (F ...

[6] = tested on: S. aureus ATCC 43300 (MRSA) adhesion to Vero cells; assay: Adhesion of LPRDA-modified S. aureus to Vero cells; assay type: cell-based, Staphylococcus aureus; settings: for AI (adhesion index) / PI (percentage of infected cells) / ML (microbial load, AI×PI): 18 h pre-incubation; for AI (adhesion index): control 7.6 ± 0.1; for PI (percentage of infected cells): control 100; for ML (microbial load, AI×PI): control 755.9 ± 10.6
Experimental: (§3) The influence of LPRDA on staphylococcal adhesive properties was evaluated using preliminary incubation of the studied bacterial strains with LPRDA for 18 h and subsequent microscopic detection of adhesion cases of the modified staphylococci to African green monkey kidney epithelial cells (Vero). The following parameters were determined from the adhesion experiments: adhesion index (AI), defined as the average number of attached bacterial cells per eukaryotic cell; percentage of infected cells (PI), defined as the proportion of Vero cells with bacteria adhered to their surface; microbial load (ML), defined as a product AI×PI; and adhesion inhibition index (AII), defined as the ratio of experimental AI to control.
(§4) Vero cells were seeded in 96-well plates at 25 × 10^3 cells/well and grown overnight. Bacterial cells (S. aureus ATCC 29213 or S. aureus ATCC 43300) were incubated with the oligopeptide LPRDA in the concentration range 12.5–100 µmol/L at 37 °C for 18 h with constant shaking at 100 rpm. Luria–Bertani (LB) medium and untreated bacteria served as a control. After incubation, the bacterial suspension was centrifuged at 10,000× g rpm for 10 min and washed twice with sterile PBS for 5 min at 10,000 rpm. The final bacterial concentrations were adjusted to the OD560 of 0.3 McFarland in sterile saline. Next, the monolayer of Vero cells in the 96-well plates was inoculated with 100 μL of the bacterial suspension with an equal volume of the stock DMEM culture medium and incubated for 1 h. The monolayer was washed three times with phosphate-buffered saline (PBS), followed by fixation with 4% formaldehyde for 60 min. Then, the wells of the plates were washed twice with PBS, dried, and stained with purified gentian violet solution (1%) for 15 min. The dye was removed, and images were captured in […] at 40× using an Evos FL microscope (Thermo Fisher Scientific, Waltham, MA, USA). Images were captured in 4–10 random fields of view at 40-fold magnification using an Evos FL microscope. Images were analyzed using ImageJ Fiji software v1.53c.

[7] = tested on: S. aureus ATCC 29213 (MSSA) adhesion to Vero cells; assay: Adhesion of LPRDA-modified S. aureus to Vero cells; assay type: cell-based, Staphylococcus aureus; settings: for AI (adhesion index): control 5.2 ± 0.3; for PI (percentage of infected cells): control 100; for ML (microbial load, AI×PI): control 516.7 ± 31.1
Experimental: as §3, §4

[8] = highest studied LPRDA concentration (100 µmol/L), p = 0.01
[9] = MSSA pre-incubated 18 h with 100 µmol/L LPRDA, then 1 h with Vero cells, mean ± SD
[10] = MSSA, 12.5 µmol/L LPRDA, 18 h pre-incubation
[11] = MSSA, 25 µmol/L LPRDA, 18 h pre-incubation, mean ± SD
[12] = MSSA, 50 µmol/L LPRDA, 18 h pre-incubation, mean ± SD
[13] = MSSA, 100 µmol/L LPRDA, p = 0.021

## Leu-Pro-Arg-Asp-Ala [LPRDA]
[1]; 24 h, control 5 × 10^6 CFU/mL, inoculation on Columbia agar
  Number of sessile bacterial cells in biofilm: 5 × 10^5 CFU/mL
[1]; 24 h, gentian violet OD 570 nm
  Reduction in biofilm: 44%
[1]; 24 h incubation
  Decrease in sessile cell bacteria number: 10 fold
[2]; 100 µmol/L LPRDA (maximum decrease), gentian violet OD 570 nm
  Decrease in biofilm formation (biomass): 12%
[2]; 12.5–100 µmol/L LPRDA
  Number of sessile bacteria versus control: No significant difference
S. aureus
  MIC: > 200 µmol/L
[3]
  Solubility: soluble in water
S. aureus SrtA
  IC50: 10.6 µM
[4]
  Protection against S. aureus-induced mastitis: demonstrated protection against S. aureus-induced mastitis
[5]
  Biofilm formation: attenuated biofilm formation to the level of knocked out bacteria
[6]; 12.5 µmol/L LPRDA
  AI (adhesion index): 7.9; 0.056
  PI (percentage of infected cells): 100; – %
  ML (microbial load, AI×PI): 790.2; 0.056
[6]; 25 µmol/L LPRDA
  PI (percentage of infected cells): 100; – %
[6]; 25 µmol/L LPRDA, mean ± SD
  AI (adhesion index): 7.4 ± 0.1; 0.516
  ML (microbial load, AI×PI): 744.2 ± 8.3; 0.516
[6]; 50 µmol/L LPRDA
  PI (percentage of infected cells): 100; – %
[6]; 50 µmol/L LPRDA, mean ± SD
  AI (adhesion index): 7.3 ± 0.2; 0.332
  ML (microbial load, AI×PI): 727.4 ± 18.2; 0.33
[6]; 100 µmol/L LPRDA
  PI (percentage of infected cells): 100; – %
[6]; 100 µmol/L LPRDA, mean ± SD
  ML (microbial load, AI×PI): 679.2 ± 13.6; 0.01
[6]; 100 µmol/L LPRDA, then 1 h with Vero cells, mean ± SD
  AI (adhesion index): 6.8 ± 0.1; 0.01
[6]; 12.5–100 µmol/L LPRDA
  Antiadhesive effect: did not induce an appreciable antiadhesive effect; also recorded: did not induce a significant antiadhesive effect
[6]; [8]
  AI lower than the control: approximately 10%
  ML lower than the control: approximately 10%
[7]; [9]
  AI (adhesion index): 3.4 ± 0.4; 0.021
  PI (percentage of infected cells): 84.0 ± 2.8; 0.021%
  ML (microbial load, AI×PI): 286.9 ± 38.8; 0.009
[7]; [10]
  AI (adhesion index): 5.4; 0.53
  PI (percentage of infected cells): 100; 0.53%
  ML (microbial load, AI×PI): 542.9; 0.53
[7]; [11]
  AI (adhesion index): 4.8 ± 0.2; 0.43
  PI (percentage of infected cells): 99.0 ± 0.8; 0.373%
  ML (microbial load, AI×PI): 471.1 ± 26.5; 0.414
[7]; MSSA, 50 µmol/L LPRDA
  AII (adhesion inhibition index, ratio of experimental AI to control): 55.8%
[7]; [12]
  AI (adhesion index): 2.9 ± 0.2; 0.01
  PI (percentage of infected cells): 85.0 ± 4.6; 0.054%
  ML (microbial load, AI×PI): 240.8 ± 9.2; 0.002
[7]; MSSA, 100 µmol/L LPRDA
  AII (adhesion inhibition index, ratio of experimental AI to control): 65.4%
[7]; MSSA, 100 µmol/L LPRDA, 1 h incubation with Vero cells
  AI reduction: 1.5 times
[7]; MSSA, 100 µmol/L LPRDA, p = 0.009
  ML decrease relative to the control: 45%
[7]; [13]
  AI decrease relative to the control: 34.6%
  PI decrease relative to the control: 16%
[7]; MSSA, LPRDA concentrations below 50 µmol/L
  Antiadhesive effect: did not have a notable antiadhesive effect
